This is an account of results in patent publication US7405314B2 (priority 2004, dated 2008).

Series [1] relates to Swiss Webster mice. The conditions noted are these: mouse, in vivo.
Series [2] concerns panel of 60 tumor cell lines. Type of series: cell-based, human.
In series [3] the test system is normal donor cells.
Series [4] concerns mice. The conditions noted are these: mouse, in vivo.
Series [5] concerns U937/PR9 cells (PML/RAR alpha). Type of series: cell-based, human.
Series [6] relates to HL60 human leukemia cells. Type of series: cell-based.
Series [7] deals with HL60 cells. Type of series: cell-based, human.

As for `C[As](C)SC[C@H](NC(=O)CC[C@H](N)C(=O)O)C(=O)NCC(=O)O` [SGLU1, S-(Dimethylarsino) Glutathione], the tolerability result in series [1] was “tolerated”. Moreover, in series [2], the “anticancer activity against tumor cell line panel” value is given as “evidence of activity at low concentrations”. Further, the “toxicity to normal cells compared with arsenic trioxide” value in series [3] is “less toxic then arsenic trioxide”. Further, in series [4] (both, iv), the “doses at which deaths occurred” value was 250, 300, and 350 mg/kg/day. Further, in series [4] (female, iv), the “no-observable-effect level for female mice” value is 150 mg/kg. The “no-observable-effect level (NOEL) for male mice” value in series [4] (male, iv) is 100 mg/kg/day. Besides, the “testicular seminiferous tubular degeneration, incidence” value in series [4] (150 mg/kg/day) is recorded as “⅕”. In series [4] (200 mg/kg/day), the “centrilobular hypertrophy of hepatocytes, incidence” value is “⅕”. For the same compound, in series [4] (iv), the “organs with compound-related lesions” value is “lung, liver, thymus, and testes”; the “sex difference in susceptibility (deaths)” value is on record as “female mice being more susceptible than males”. For the same compound, the “influence of functional PML/Rar alpha gene on sensitivity of the cells” value in series [5] is reported as “no influence on the sensitivity”. Moreover, the “induction of apoptosis (annexin V staining), events involved” value in series [6] is “involves change of the potential of mitochondrial membrane (CMXRos staining) and activation of caspases”. The cell cycle disturbance result in series [7] is recorded as “marked accumulation of cells in S-phase”.
